{"source": "patent US20140314663A1", "about": "“PEPTIDE-MEDIATED DELIVERY OF ACTIVE AGENTS ACROSS THE BLOOD-BRAIN BARRIER” (MAYO FOUNDATION FOR MEDICAL EDUCATION AND RESEARCH, priority 2011, published 2014)", "key": {"BBB [1]": {"tested_on": "BBB", "test": "Comparison of delivery of EB to the brain by K16ApoE and K26ApoE", "assay_type": "in vivo", "conditions": "for EB dye in brain: EB 10 min later, brain collected 1 h after EB", "protocol": "This experiment was carried out to evaluate if lengthening the lysine-chain will have any effect on the delivery of small molecules to the brain. ˜40 μL of 2% EB was injected 10 min after injection of various amounts of K16ApoE (75 μg, 100 μg, 150 μg, 250 μg, and 300 μg) or K26ApoE (25 μg, 50 μg, 75 μg, 100 μg, 125 μg, and 150 μg). K26ApoE (SEQ ID NO: 139) having the sequence: Brain tissue as was collected 1 h following EB injection. All injections were at the femoral vein."}, "BBB [2]": {"tested_on": "BBB", "test": "Length of time of BBB opening following administration of peptide", "assay_type": "in vivo, mice", "protocol": "A series of mice were administered 300 μg of K16ApoE followed by administration of ˜40 μL 2% EB at various time points. As a control, only EB was injected, cardiac perfusion was done 6 hours after EB injection, followed by collection of brain. For the other images, 300 μg of K16ApoE was first injected, then EB was injected after 5 min, 10 min, 30 min, 1 h, 2 h and 4 h, respectively. Then, perfusion and collection of brain was done after 5 h 55 min, 5 h 50 min, 5 h 30 min, 5 h, 4 h and 2 h, respectively)."}, "brain": {"tested_on": "brain", "test": "Residence time of EB dye in brain following transportation by the peptide", "assay_type": "in vivo, mice", "protocol": "A series of mice were administered 300 μg of K16ApoE followed by administration of ˜40 μL 2% EB 10 min after administration of the peptide. As a control, only EB was injected, cardiac perfusion was done 6 hours after EB injection, followed by collection of brain. For all other mice, perfusion and collection of brains was performed 15 min, 30 min, 1 h, 2 h, 4 h, 6 h, 12, h, and 24 h following administration of EB."}, "[3]": {"tested_on": "brains, lungs, heart, liver, spleen and kidney", "test": "Tissue distribution of Evans Blue (EB) after delivery via K16ApoE", "assay_type": "in vivo, mice", "protocol": "Mice were injected with various amounts of K16ApoE peptide (0 μg, 150 μg, 100 μg, 75 μg, 50 μg, 25 and μg) first. EB (40 μL of a 2% solution was injected 10 min after injection of the peptide. Tissues (brains, lungs, heart, liver, spleen and kidney) were collected 1 h after EB delivery. All injections were through the femoral vein."}, "BBB [4]": {"tested_on": "BBB", "test": "Transportation of Evan's Blue (EB) dye across the BBB after iv injection of peptide", "assay_type": "in vivo, mouse", "conditions": "67.5 nanomoles K16ApoE iv injected first, then ~40 μL 2% EB; brain evaluated ~2 hours after dye", "protocol": "(§1) To explore whether K16ApoE (SEQ. ID. NO: 42) compromises integrity of the BBB, the peptide was first injected by iv followed by injection of Evan's Blue (EB; a routinely used small molecule blue dye with a molecular weight of 960.81) by iv into the femoral vein of a mouse. Cardiac perfusion was performed and the brains of the mice were removed and evaluated approximately 2 hours following injection of the dye. As controls, a peptide consisting of 16 lysine residues (K16) and a 20-amino acid peptide comprising the LDLR-binding domain of ApoE (ApoE-FITC; (SEQ ID NO:13)), were used. The particulars of each administration are as follows: • 1) 67.5 nanomoles of K16 injected first, then ˜40 μL 2% EB was injected. • 2) Same as 1 but K16 and EB mixed prior to injection. • 3) 67.5 nanomoles of ApoE-FITC injected first, then ˜40 μL 2% EB was injected. • 4) Same as 3 but ApoE-FITC peptide and EB was mixed prior to injection. • 5) 67.5 nanomoles of K16ApoE injected first, then ˜40 μL 2% EB was injected. • 6) Same as 5 but K16ApoE peptide and EB was mixed first before injection."}, "BBB [5]": {"tested_on": "BBB", "test": "EB transportation across the BBB as a function of the amount of K16ApoE administered", "assay_type": "in vivo, mouse", "protocol": "as §1\nUsing the method described in Example 1, various amounts of K16ApoE (SEQ. ID. NO: 42) was injected followed by administration of ˜40 μL 2% EB. […]"}, "BBB [6]": {"tested_on": "BBB", "test": "Transportation of dyes of various molecular weights across the BBB (K16ApoE or K16ApoE+IgG)", "assay_type": "in vivo, mouse", "protocol": "as §1\nTo evaluate delivery of molecules of various molecular weights across the blood brain barrier, the method of Example 1 was used with Evan's Blue (EB), MW 960.81 gmol; Crocein Scarlet, MW 584.54 g/mol; and Light green SF, MW 792.86 g/mol. […]"}, "[7]": {"conditions": "control: only EB injected, perfusion 6 hours after EB"}}}
{"compound": "KKKKKKKKKKKKKKKKKKKKKKKKKKLRVRLASHLRKLRKRLLRDA (KKKKKKKKKKKKKKKKKKKKKKKKKKLRVRLASHLRKLRKRLLRDA) [K26ApoE]", "values": [{"measurement": "EB dye in brain", "setting": "BBB [1]; 25 μg of peptide", "result": "no dye was observed"}, {"measurement": "EB dye in brain", "setting": "BBB [1]; 50 μg of peptide", "result": "only a small amount of dye present"}, {"measurement": "EB dye in brain", "setting": "BBB [1]; 75 μg of peptide", "result": "Increasing EB is observed"}, {"measurement": "effectiveness in delivering EB to the brain relative to K16ApoE", "setting": "BBB [1]; K26ApoE vs K16ApoE", "result": "approximately two-fold"}]}
{"compound": "Cc1cc(-c2ccc(/N=N/c3ccc4c(S(=O)(=O)O)cc(S(=O)(=O)O)c(N)c4c3O)c(C)c2)ccc1/N=N/c1ccc2c(S(=O)(=O)O)cc(S(=O)(=O)O)c(N)c2c1O", "note": "[EB, Evan's Blue]", "values": [{"measurement": "EB dye in brain", "setting": "BBB [2]; [7]", "result": "no dye was observed"}, {"measurement": "time after administration up to which dye remains intense (retained well) in brain", "setting": "brain; EB 10 min after 300 μg K16ApoE", "result": "up to 4 h"}, {"measurement": "time post EB administration at which dye is first observed in brain", "setting": "brain; EB 10 min after 300 μg K16ApoE", "result": 15, "unit": "min"}, {"measurement": "time after administration up to which dye is still observed, less intensely, in brain", "setting": "brain; EB 10 min after 300 μg K16ApoE, longest time point tested", "result": "up to 24 hours"}, {"measurement": "EB dye in brain", "setting": "brain; [7]", "result": "no dye is observed"}, {"measurement": "EB in brain", "setting": "[3]; EB 10 min after 0-150 μg K16ApoE, tissues collected 1 h after EB", "result": "goes into brain only after injection of the peptide"}, {"measurement": "EB stain of tissues", "setting": "[3]; EB injected after K16ApoE injection", "result": "Kidney, spleen and liver are stained with EB"}, {"measurement": "EB stain of tissues", "setting": "[3]; EB injected without K16ApoE", "result": "Kidney, spleen, liver and heart show some EB-stain"}]}
{"compound": "KKKKKKKKKKKKKKKKLRVRLASHLRKLRKRLLRDA (KKKKKKKKKKKKKKKKLRVRLASHLRKLRKRLLRDA) [K16ApoE]", "values": [{"measurement": "EB dye transported to the brain (blue coloring of brain)", "setting": "BBB [4]", "result": "crosses the BBB and is transported to the brain"}, {"measurement": "EB dye observed in the brain", "setting": "BBB [5]; increasing amounts of K16ApoE (100, 200, 300 μg) injected before ~40 μL 2% EB", "result": "increasing amount of EB dye present in the brain"}, {"measurement": "EB dye observed in the brain", "setting": "BBB [5]; less than 100 μg K16ApoE injected before ~40 μL 2% EB", "result": "no dye is observed"}, {"measurement": "transport of dye to the brain", "setting": "BBB [6]; 300 μg K16ApoE (alone or + 300 μg IgG) injected first, then dye (EB, Crocein Scarlet, Light green SF; ~40 μL 2%)", "result": "allowed transport of molecules of various sizes to the brain"}, {"measurement": "transport of dye to the brain", "setting": "BBB [6]; 300 μg K16ApoE mixed with dye (~40 μL 2%) prior to injection", "result": "does not appear to cross the BBB"}, {"measurement": "EB dye in brain", "setting": "BBB [2]; EB injected 5 min, 10 min, 30 min after 300 μg K16ApoE", "result": "observed"}, {"measurement": "EB dye in brain", "setting": "BBB [2]; EB injected 1 h and 2 h after 300 μg K16ApoE", "result": "decreased intensity of dye observed"}, {"measurement": "EB dye in brain", "setting": "BBB [2]; EB injected 4 h after 300 μg K16ApoE", "result": "little to no EB dye remaining"}, {"measurement": "EB dye in brain", "setting": "BBB [1]; 75 μg of peptide", "result": "no dye was observed"}, {"measurement": "EB dye in brain", "setting": "BBB [1]; 100 μg of peptide", "result": "only a small amount of dye present"}, {"measurement": "EB dye in brain", "setting": "BBB [1]; 150 μg of peptide and above", "result": "Increasing EB is observed"}, {"measurement": "amount of K16ApoE giving best EB entry into brain", "setting": "[3]; EB 10 min after peptide, tissues collected 1 h after EB", "result": 150, "unit": "µg"}]}
